pIC50: −log10 of the molar value. Counter-ions that a name gives are not always drawn.
Legend:
PDGFR beta [1] = biological target: T1, PDGFR beta (Homo sapiens, UniProt P09619); assay: Phospho PDGFR LICOR Cell Assay (Example B); format: cell-based; details: averaged IC50; PDGFR beta phosphorylation in HS27 human fibroblast cell line, PDGF-BB stimulation 10 minutes, normalized to total ERK
T1 construct: endogenous in cells; host or cells: HS27 human fibroblast cell line
Summary of the method: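 Read-out is in-cell phospho-PDGFRβ/total-ERK infrared immunofluorescence in HS27 fibroblasts. Cells got 1 h compound exposure before a 10 min PDGF-BB challenge. A 4-parameter logistic fit gave IC50 as the concentration yielding 50 percent of control.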

PDGFR beta [2] = biological target: T1, PDGFR beta; assay: Phospho PDGFR Cell Assay, sandwich ELISA (Example A); format: cell-based; details: averaged IC50, PDGFR beta phosphorylation in HS27 human fibroblast cell line, PDGF-BB stimulation 5 minutes
Method: Compounds were screened for inhibition of PDGFR beta phosphorylation in the HS27 human fibroblast cell line. Cells were seeded into a 96 well tissue culture plate, then incubated overnight in a 37° C., 5% CO2 incubator. The following day, cells were treated for one hour with test compound dilutions. After stimulation with PDGF-BB ligand for 5 minutes, cells were lysed and added to a sandwich ELISA plate from R&D Systems to detect levels of phospho PDGFR beta. A standard 4-parameter logistic model was fit to the inhibitor dose response curves, with the IC50 being defined as the concentration of inhibitor giving 50 percent of control (POC).

cFMS = biological target: T2, cFMS (Homo sapiens, UniProt P07333); assay: cFMS Cell-Based Assay (Example C); details: averaged IC50; phospho-cFMS in THP-1 cells stimulated with 250 ng/mL recombinant human MCSF; read-out: cFMS Cell ELISA IC50
T2 construct: THP-1 cells (human acute monocytic leukemia cell line) were serum-starved for 4 hours; endogenous in cells; host or cells: THP-1 cells (human acute monocytic leukemia cell line)
Summary of the method: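 Phosphotyrosine on cFMS, captured from lysates and quantified by ELISA, reads receptor activation after 1 min of 250 ng/mL human MCSF. Beforehand, THP-1 cells were serum-starved for 4 h and exposed to compound for 1 h (9 points, 3-fold, typically up to 5,000 nM). IC50 from a 4-parameter logistic fit as 50 percent of control.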

c-KIT = biological target: T3, c-KIT (Homo sapiens, UniProt P10721); assay: c-KIT Cell-Based Assay (Example D); details: averaged IC50; phospho-c-KIT in M-07e cells stimulated with 150 ng/ml recombinant human SCF; read-out: cKIT Cell ELISA IC50
T3 construct: M-07e cells (human acute megakaryoblastic leukemia cell line) were serum-starved for 4 hours; endogenous in cells; host or cells: M-07e cells (human acute megakaryoblastic leukemia cell line)
Summary of the method: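 Phospho-c-KIT ELISA readout, calibrated with purified phospho-SCF R, gave IC50 (4-parameter fit, 50% of control). Before lysis, M-07e cells were starved 4 h, exposed 1 h to a 9-point 3-fold series (highest usually 5,000 nM), and stimulated with 150 ng/ml SCF for 4 min.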

T2 sequence (P07333 20-972): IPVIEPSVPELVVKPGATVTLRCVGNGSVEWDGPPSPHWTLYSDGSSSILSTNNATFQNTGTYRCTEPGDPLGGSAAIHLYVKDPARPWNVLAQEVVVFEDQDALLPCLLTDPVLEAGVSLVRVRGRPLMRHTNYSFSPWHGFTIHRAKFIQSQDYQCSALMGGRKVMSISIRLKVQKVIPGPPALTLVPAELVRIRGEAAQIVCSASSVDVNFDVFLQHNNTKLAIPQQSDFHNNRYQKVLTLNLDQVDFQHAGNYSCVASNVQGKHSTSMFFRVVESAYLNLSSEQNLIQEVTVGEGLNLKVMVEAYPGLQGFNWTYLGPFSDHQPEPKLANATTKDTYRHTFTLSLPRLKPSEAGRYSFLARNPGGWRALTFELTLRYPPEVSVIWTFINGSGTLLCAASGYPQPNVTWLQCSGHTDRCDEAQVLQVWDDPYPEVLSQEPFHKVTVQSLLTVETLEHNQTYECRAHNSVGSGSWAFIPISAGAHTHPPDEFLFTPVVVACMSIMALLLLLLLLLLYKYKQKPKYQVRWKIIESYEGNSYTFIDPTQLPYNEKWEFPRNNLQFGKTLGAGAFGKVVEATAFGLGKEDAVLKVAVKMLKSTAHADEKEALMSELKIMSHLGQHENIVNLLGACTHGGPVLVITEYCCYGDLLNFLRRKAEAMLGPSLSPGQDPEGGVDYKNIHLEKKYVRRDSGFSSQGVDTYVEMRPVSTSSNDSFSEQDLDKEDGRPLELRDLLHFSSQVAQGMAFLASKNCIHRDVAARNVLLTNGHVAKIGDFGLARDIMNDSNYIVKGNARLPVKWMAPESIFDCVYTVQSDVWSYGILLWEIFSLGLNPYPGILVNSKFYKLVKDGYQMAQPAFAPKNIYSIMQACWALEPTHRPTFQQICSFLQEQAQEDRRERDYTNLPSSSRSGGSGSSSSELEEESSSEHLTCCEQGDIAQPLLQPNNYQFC
T3 sequence (P10721 26-976): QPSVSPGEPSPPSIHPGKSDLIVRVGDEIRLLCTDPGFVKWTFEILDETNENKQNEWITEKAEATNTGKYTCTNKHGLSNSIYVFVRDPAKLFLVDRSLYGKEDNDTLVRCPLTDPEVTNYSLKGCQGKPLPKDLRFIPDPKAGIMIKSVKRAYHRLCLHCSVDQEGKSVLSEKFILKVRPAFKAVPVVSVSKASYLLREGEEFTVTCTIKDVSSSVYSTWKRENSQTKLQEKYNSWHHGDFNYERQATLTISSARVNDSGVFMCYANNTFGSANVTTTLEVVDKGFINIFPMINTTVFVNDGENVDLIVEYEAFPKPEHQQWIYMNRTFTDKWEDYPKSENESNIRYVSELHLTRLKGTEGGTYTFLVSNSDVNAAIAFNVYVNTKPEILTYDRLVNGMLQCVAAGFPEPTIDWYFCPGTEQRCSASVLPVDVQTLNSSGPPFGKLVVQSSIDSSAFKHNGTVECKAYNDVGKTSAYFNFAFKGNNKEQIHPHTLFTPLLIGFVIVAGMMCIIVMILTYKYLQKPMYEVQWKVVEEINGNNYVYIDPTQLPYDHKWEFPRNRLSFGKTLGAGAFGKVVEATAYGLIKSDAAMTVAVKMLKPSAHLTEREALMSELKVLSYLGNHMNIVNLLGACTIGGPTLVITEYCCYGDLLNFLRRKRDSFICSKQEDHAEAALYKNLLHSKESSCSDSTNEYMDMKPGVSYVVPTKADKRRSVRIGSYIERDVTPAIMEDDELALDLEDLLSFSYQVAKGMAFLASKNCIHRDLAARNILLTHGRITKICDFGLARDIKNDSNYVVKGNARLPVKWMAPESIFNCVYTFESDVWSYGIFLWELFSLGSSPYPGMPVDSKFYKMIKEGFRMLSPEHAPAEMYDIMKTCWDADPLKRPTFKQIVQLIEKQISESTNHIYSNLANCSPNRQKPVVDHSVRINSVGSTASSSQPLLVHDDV
T1 sequence (P09619 33-1106): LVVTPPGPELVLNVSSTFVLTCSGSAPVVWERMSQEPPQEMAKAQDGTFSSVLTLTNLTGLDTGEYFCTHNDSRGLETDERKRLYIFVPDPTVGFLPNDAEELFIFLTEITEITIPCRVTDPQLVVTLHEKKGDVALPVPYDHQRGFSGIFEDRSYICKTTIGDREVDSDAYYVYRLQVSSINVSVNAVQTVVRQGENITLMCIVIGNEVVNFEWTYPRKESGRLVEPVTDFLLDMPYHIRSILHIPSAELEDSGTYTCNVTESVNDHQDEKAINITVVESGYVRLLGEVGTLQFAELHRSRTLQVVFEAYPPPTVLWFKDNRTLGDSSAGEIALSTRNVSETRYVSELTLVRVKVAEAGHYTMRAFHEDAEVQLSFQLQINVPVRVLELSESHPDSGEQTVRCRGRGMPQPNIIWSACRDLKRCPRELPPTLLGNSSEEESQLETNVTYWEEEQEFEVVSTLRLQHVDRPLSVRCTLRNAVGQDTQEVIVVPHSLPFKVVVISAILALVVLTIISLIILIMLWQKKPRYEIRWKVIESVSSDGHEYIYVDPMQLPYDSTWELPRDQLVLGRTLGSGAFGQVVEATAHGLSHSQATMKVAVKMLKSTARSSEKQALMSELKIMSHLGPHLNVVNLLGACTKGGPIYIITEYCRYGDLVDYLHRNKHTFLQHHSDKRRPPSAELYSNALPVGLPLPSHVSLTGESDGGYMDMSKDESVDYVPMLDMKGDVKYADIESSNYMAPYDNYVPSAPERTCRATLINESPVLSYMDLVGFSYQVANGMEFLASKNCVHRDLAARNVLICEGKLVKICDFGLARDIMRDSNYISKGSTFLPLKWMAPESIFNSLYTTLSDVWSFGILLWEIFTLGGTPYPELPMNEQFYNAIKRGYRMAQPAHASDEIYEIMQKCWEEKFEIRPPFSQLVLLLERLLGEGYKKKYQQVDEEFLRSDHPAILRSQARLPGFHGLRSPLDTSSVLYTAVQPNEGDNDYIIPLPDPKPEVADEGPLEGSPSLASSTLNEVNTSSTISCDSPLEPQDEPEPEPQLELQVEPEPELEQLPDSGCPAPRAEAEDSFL

Row | Structure (SMILES) | pIC50 (PDGFR beta [1]) | pIC50 (PDGFR beta [2]) | pIC50 (cFMS) | pIC50 (c-KIT)
1 | Cc1nn(Cc2cccc(C(C)C)n2)c2cccc(NC(=O)c3cnc4cc(OCCN5CCN(C(C)C)CC5)ccn34)c12 [Example 6, 7-(2-(4-Isopropylpiperazin-1-yl)ethoxy)-N-(1-((6-isopropylpyridin-2-yl)methyl)-3-methyl-1H-indazol-4-yl)imidazo[1,2-a]pyridine-3-carboxamide] | 8.20 | 7.47 | 7.39 | 7.24
2 | Cc1nn(Cc2cccc(C3CC3)n2)c2cccc(NC(=O)c3cnc4cc(OCCN5CCN(C)[C@H](C)C5)ccn34)c12 [Example 27, (R)—N-(1-((6-cyclopropylpyridin-2-yl)methyl)-3-methyl-1H-indazol-4-yl)-7-(2-(3,4-dimethylpiperazin-1-yl)ethoxy)imidazo[1,2-a]pyridine-3-carboxamide dihydrochloride] | 7.14 | 7.16 | 7.86 | 7.44
3 | Cc1nn(Cc2cccc(C(C)C)n2)c2cccc(NC(=O)c3cnc4cc(OCCN5CC6(COC6)C5)ccn34)c12 [Example 5, 7-(2-(2-oxa-6-azaspiro[3.3]heptan-6-yl)ethoxy)-N-(1-((6-isopropylpyridin-2-yl)methyl)-3-methyl-1H-indazol-4-yl)imidazo[1,2-a]pyridine-3-carboxamide] | 7.66 | 7.69 | 7.55 | 7.08
4 | Cc1nn(Cc2cccc(C(C)C)n2)c2cccc(NC(=O)c3cnc4cc(OCCN5CC6(CNC6)C5)ccn34)c12 [Example 3, 7-(2-(2,6-diazaspiro[3.3]heptan-2-yl)ethoxy)-N-(1-((6-isopropylpyridin-2-yl)methyl)-3-methyl-1H-indazol-4-yl)imidazo[1,2-a]pyridine-3-carboxamide trihydrochloride] | 8.00 | 6.86 | 7.15 | 6.75
5 | Cc1nn(Cc2cccc(C(C)C)n2)c2cccc(NC(=O)c3cnc4cc(OCCN5CCOCC5)ccn34)c12 [Example 1, N-(1-((6-isopropylpyridin-2-yl)methyl)-3-methyl-1H-indazol-4-yl)-7-(2-morpholinoethoxy)imidazo[1,2-a]pyridine-3-carboxamide] | 7.89 | 7.53 | 7.79 | 7.27
6 | Cc1nn(Cc2cccc(C(C)C)n2)c2cccc(NC(=O)c3cnc4cc(OCCN5CCN(C)[C@H](C)C5)ccn34)c12 [Example 28, (R)-7-(2-(3,4-dimethylpiperazin-1-yl)ethoxy)-N-(1-((6-isopropylpyridin-2-yl)methyl)-3-methyl-1H-indazol-4-yl)imidazo[1,2-a]pyridine-3-carboxamide] | 8.00 | 8.23 | 7.85 | 7.45
7 | Cc1nn(Cc2cccc(C3CC3)n2)c2cccc(NC(=O)c3cnc4cc(OCCN5CCN(C(C)C)CC5)ccn34)c12 [Example 16, N-(1-((6-cyclopropylpyridin-2-yl)methyl)-3-methyl-1H-indazol-4-yl)-7-(2-(4-isopropylpiperazin-1-yl)ethoxy)imidazo[1,2-a]pyridine-3-carboxamide] | 6.99 | 7.55 | 7.86 | 7.46
8 | CCN1CCN(CCOc2ccn3c(C(=O)Nc4cccc5c4c(C)nn5Cc4cccc(C(C)C)n4)cnc3c2)CC1 [Example 2, 7-(2-(4-Ethylpiperazin-1-yl)ethoxy)-N-(1-((6-isopropylpyridin-2-yl)methyl)-3-methyl-1H-indazol-4-yl)imidazo[1,2-a]pyridine-3-carboxamide] | 7.63 | 8.03 | 7.56 | 7.39
9 | Cc1nn(Cc2ccc(C(F)(F)F)cn2)c2cccc(NC(=O)c3cnc4cc(OCCN5CCN(C(C)C)CC5)ccn34)c12 [Example 44, 7-(2-(4-isopropylpiperazazin-1-yl)ethoxy)-N-(3-methyl-1-((5-(trifluoromethyl)pyridin-2-yl)methyl)-1H-indazol-4-yl)imidazo[1,2-a]pyridine-3-carboxamide] | 6.10 | 6.94 | 7.64 | 7.20
10 | Cc1cccc(Cn2nc(C)c3c(NC(=O)c4cnc5cc(C(C)O)ccn45)cccc32)n1 (stereo not shown) [Example 76, 7-(1-hydroxyethyl)-N-(3-methyl-1-((6-methylpyridin-2-yl)methyl)-1H-indazol-4-yl)imidazo[1,2-a]pyridine-3-carboxamide] | – | ≤ 6.00 | 7.33 | 5.30
11 | Cc1cccc(Cn2nc(C)c3c(NC(=O)c4cnc5cc(CCN6CCCC6)ccn45)cccc32)n1 [Example 77, N-(3-methyl-1-((6-methylpyridin-2-yl)methyl)-1H-indazol-4-yl)-7-(2-(pyrrolidin-1-yl)ethyl)imidazo[1,2-a]pyridine-3-carboxamide] | – | ≤ 6.00 | 7.11 | 5.30
12 | CC(C)N1CCN(CCOc2ccn3c(C(=O)Nc4cccc5c4c(Cl)nn5Cc4cccc(C5CC5)n4)cnc3c2)CC1 [Example 21, N-(3-chloro-1-((6-cyclopropylpyridin-2-yl)methyl)-1H-indazol-4-yl)-7-(2-(4-isopropylpiperazin-1-yl)ethoxy)imidazo[1,2-a]pyridine-3-carboxamide] | – | 6.91 | 7.92 | 7.33
13 | Cc1nn(Cc2cccc(C3CCCC3)n2)c2cccc(NC(=O)c3cnc4cc(OCCN5CCN(C)[C@@H](C)C5)ccn34)c12 [Example 33, (S)—N-(1-((6-cyclopentylpyridin-2-yl)methyl)-3-methyl-1H-indazol-4-yl)-7-(2-(3,4-dimethylpiperazin-1-yl)ethoxy)imidazo[1,2-a]pyridine-3-carboxamide] | – | 7.18 | 7.38 | 7.65
14 | Cc1cccc(Cn2nc(C)c3c(NC(=O)c4cnc5cc(OCCN6CCN(C(=O)OC(C)(C)C)CC6)ccn45)cccc32)n1 [Example 56, tert-Butyl 4-(2-(3-(3-methyl-1-((6-methylpyridin-2-yl)methyl)-1H-indazol-4-ylcarbamoyl)imidazo[1,2-a]pyridin-7-yloxy)ethyl)piperazine-1-carboxylate] | – | ≤ 6.00 | 7.49 | 5.93
15 | Cc1cccc(Cn2nc(C)c3c(NC(=O)c4cnc5cc(-c6cn[nH]c6)ccn45)cccc32)n1 [Example 70, N-(3-methyl-1-((6-methylpyridin-2-yl)methyl)-1H-indazol-4-yl)-7-(1H-pyrazol-4-yl)imidazo[1,2-a]pyridine-3-carboxamide] | – | 7.00 | 8.29 | 6.84
16 | Cc1cc(C)nc(Cn2nc(C)c3c(NC(=O)c4cnc5cc(OCCN6CCN(C)[C@@H](C)C6)ccn45)cccc32)c1 [Example 34, (S)-7-(2-(3,4-dimethylpiperazin-1-yl)ethoxy)-N-(1-((4,6-dimethylpyridin-2-yl)methyl)-3-methyl-1H-indazol-4-yl)imidazo[1,2-a]pyridine-3-carboxamide] | 5.78 | ≤ 6.00 | – | –
17 | Cc1nn(Cc2cccc(C(C)C)n2)c2cccc(NC(=O)c3cnc4cc(OCCN5C[C@@H](C)N(C)[C@@H](C)C5)ccn34)c12 [Example 7, N-(1-((6-Isopropylpyridin-2-yl)methyl)-3-methyl-1H-indazol-4-yl)-7-(2-((3S,5R)-3,4,5-trimethylpiperazin-1-yl)ethoxy)imidazo[1,2-a]pyridine-3-carboxamide] | – | 7.39 | 7.68 | 7.36
18 | O=C(Nc1cccc2c1cnn2Cc1ccccc1)c1cnc2ccc(Br)cn12 [Example 155, N-(1-benzyl-1H-indazol-4-yl)-6-bromoimidazo[1,2-a]pyridine-3-carboxamide] | – | 6.55 | 6.94 | 7.12
19 | Cc1cccc(CCn2nc(C)c3c(NC(=O)c4cnc5cc(OCCN6CCN(C)[C@@H](C)C6)ccn45)cccc32)n1 [Example 42, (S)-7-(2-(3,4-dimethylpiperazin-1-yl)ethoxy)-N-(3-methyl-1-(2-(6-methylpyridin-2-yl)ethyl)-1H-indazol-4-yl)imidazo[1,2-a]pyridine-3-carboxamide] | 5.32 | ≤ 6.00 | – | –

Source: patent US10669269B2, “Substituted N-(1H-indazol-4-yl)imidazo[1,2-a]pyridine-3-carboxamide compounds as type III receptor tyrosine kinase inhibitors” (ARRAY BIOPHARMA INC., priority 2010, dated 2020)
